Reference: patent US6441195B1, “Substituted sulphonylamino(thio) carbonyl compounds” (Bayer Aktiengesellschaft, priority 1995, dated 2002)

Tests used:
Assay type in all cases: in vivo
Maize = assay: Pre-emergence test/Greenhouse, Maize
Method: (§1) To produce a suitable preparation of the active compound, 1 part by weight of active compound is mixed with the stated amount of solvent, the stated amount of emulsifier is added and the concentrate is diluted with water to the desired concentration.
(§2) Seeds of the test plants are sown in normal soil. After about 24 hours, the soil is watered with the preparation of active compound. Advantageously, the amount of water per unit area is kept constant. The active compound concentration in the preparation is not important, only the active compound appliation rate per unit area matters.
(§3) After three weeks, the degree of damage to the plants is rated in % damage in comparison to the development of the untreated control.
(§4) 0%=no action (like untreated control)

Poa = assay: Pre-emergence test/Greenhouse, Poa; details: after three weeks
Method: as §1, §2, §3, §4

Solanum = assay: Pre-emergence test/Greenhouse, Solanum; details: after three weeks
Method: as §1, §2, §3, §4

Soya beans = assay: Pre-emergence test/Greenhouse, Soya beans
Method: as §1, §2, §3, §4

Ambrosia = assay: Pre-emergence test/Greenhouse, Ambrosia; details: after three weeks
Method: as §1, §2, §3, §4

Matricaria = assay: Pre-emergence test/Greenhouse, Matricaria; details: after three weeks
Method: as §1, §2, §3, §4

weeds = assay: Pre-emergence test (greenhouse), activity against weeds; details: in words
Method: Solvent: 5 parts by weight of acetone
Emulsifier: 1 part by weight of alkylaryl polyglycol ether
as §1, §2, §3, §4

Lolium = assay: Pre-emergence test/Greenhouse, Lolium; details: after three weeks
Method: as §1, §2, §3, §4

Sorghum = assay: Pre-emergence test/Greenhouse, Sorghum; details: after three weeks
Method: as §1, §2, §3, §4

[1] = pre-emergence, 60 g of ai./ha, after three weeks

| SMILES | degree of damage to the plants (% damage vs untreated control), Maize (Maize; in vivo) [%] | degree of damage to the plants (% damage vs untreated control), Poa (Poa; 125 g of ai./ha) [%] | degree of damage to the plants (% damage vs untreated control), Solanum (Solanum; 125 g of ai./ha) [%] | degree of damage to the plants (% damage vs untreated control), Soya beans (Soya beans; in vivo) [%] | degree of damage to the plants (% damage vs untreated control), Ambrosia (Ambrosia; 125 g of ai./ha) [%] | degree of damage to the plants (% damage vs untreated control), Matricaria (Matricaria; 125 g of ai./ha) [%] | activity against weeds (weeds) | degree of damage to the plants (% damage vs untreated control), Poa (Poa; 60 g of ai./ha) [%] | degree of damage to the plants (% damage vs untreated control), Lolium (Lolium; 60 g of ai./ha) [%] | degree of damage to the plants (% damage vs untreated control), Solanum (Solanum; 60 g of ai./ha) [%] | degree of damage to the plants (% damage vs untreated control), Ambrosia (Ambrosia; 60 g of ai./ha) [%] | degree of damage to the plants (% damage vs untreated control), Matricaria (Matricaria; 60 g of ai./ha) [%] | degree of damage to the plants (% damage vs untreated control), Lolium (Lolium; 125 g of ai./ha) [%] | further results |
| --- | --- | --- | --- | --- | --- | --- | --- | --- | --- | --- | --- | --- | --- | --- |
| C=CCn1c(SCCF)nn(C(=O)NS(=O)(=O)c2c(C)cccc2C(=O)OC)c1=O [Example 153] | 0 | 95 | 95 | 30 | 95 | 70 | very strong activity against weeds |  |  |  |  |  |  |  |
| C#CCSc1nn(C(=O)NS(=O)(=O)c2c(C)cccc2C(=O)OC)c(=O)n1C [Example 161] | 0 |  |  | 20 |  |  | very strong activity against weeds | 95 | 95 | 95 | 95 | 95 |  |  |
| CCn1c(OC)nn(C(=O)NS(=O)(=O)c2c(C)csc2C(=O)OC)c1=O [Example 37] | 10 |  |  | 10 |  |  | very strong activity against weeds | 70 | 90 | 90 | 80 | 95 |  |  |
| CCOC(=O)c1scc(C)c1S(=O)(=O)NC(=O)n1nc(SCC)n(C)c1=O [Example 56] |  | 80 | 95 | 0 |  | 100 | very strong activity against weeds |  |  |  |  |  | 60 |  |
| CCOC(=O)c1scc(C)c1S(=O)(=O)NC(=O)n1nc(CC)n(OCC)c1=O [Example 61] | 0 | 95 | 95 |  | 100 | 95 | very strong activity against weeds |  |  |  |  |  | 95 | degree of damage to the plants (% damage vs untreated control), Sorghum (Sorghum; 125 g of ai./ha): 80% |
| CCOc1nn(C(=O)NS(=O)(=O)c2c(C)csc2C(=O)OC)c(=O)n1CC [Example 41] | 0 |  |  |  |  |  | very strong activity against weeds | 80 | 60 | 90 | 95 | 95 |  | degree of damage to the plants (% damage vs untreated control), Sorghum (Sorghum; 60 g of ai./ha): 60% |
| CCSc1nn(C(=O)NS(=O)(=O)c2c(C)cccc2C(=O)OC(C)C)c(=O)n1C [Example 42] | 10 |  |  | 10 |  |  | very strong activity against weeds | 95 | 95 | 95 | 95 | 95 |  |  |
| CCCOC(=O)c1cccc(C)c1S(=O)(=O)NC(=O)n1nc(OCC)n(CC)c1=O [Example 45] | 10 | 95 | 95 | 20 | 95 | 90 | very strong activity against weeds |  |  |  |  |  | 90 |  |
| COC(=O)c1cccc(C)c1S(=O)(=O)NC(=O)n1nc(OCC(F)(F)F)n(C2CC2)c1=O [Example 142] | 20 |  |  | 10 |  |  | very strong activity against weeds |  |  |  |  |  |  | degree of damage to the plants (% damage vs untreated control), Poa (Poa; 15 g of ai./ha): 80%; degree of damage to the plants (% damage vs untreated control), Lolium (Lolium; 15 g of ai./ha): 95%; degree of damage to the plants (% damage vs untreated control), Solanum (Solanum; 15 g of ai./ha): 80%; degree of damage to the plants (% damage vs untreated control), Ambrosia (Ambrosia; 15 g of ai./ha): 80%; degree of damage to the plants (% damage vs untreated control), Matricaria (Matricaria; 15 g of ai./ha): 80% |
| CCOC(=O)c1scc(C)c1S(=O)(=O)NC(=O)n1nc(OCC)n(CC)c1=O [Example 64] | 10 |  |  | 30 |  |  | very strong activity against weeds | 60 | 90 | 100 | 100 | 100 |  |  |
| COC(=O)c1cccc(C)c1S(=O)(=O)NC(=O)c1noc(C)n1 [Example 9] | 0 | 80 | 95 |  | 95 | 90 | very strong activity against weeds |  |  |  |  |  | 80 | degree of damage to the plants (% damage vs untreated control), Sorghum (Sorghum; 125 g of ai./ha): 60% |
| CCOn1c(SCC)nn(C(=O)NS(=O)(=O)c2c(C)cccc2C(=O)OC)c1=O [Example 3, 4-ethoxy-5-ethylthio-2-(2-methyl-6-methoxy-carbonyl-phenylsulphonylaminocarbonyl)-2,4-dihydro-3H-1,2,4-triazol-3-one] |  |  |  |  |  |  | very strong activity against weeds | 70 | 90 | 80 | 80 | 95 |  | degree of damage to the plants (% damage vs untreated control), Maize (Maize; [1]): 10%; degree of damage to the plants (% damage vs untreated control), Soya beans (Soya beans; [1]): 20% |
| C=CCOc1nn(C(=O)NS(=O)(=O)c2c(C)cccc2C(=O)OC)c(=O)n1C1CC1 [Example 147] | 30 |  |  | 0 |  |  | very strong activity against weeds |  |  |  |  |  |  | degree of damage to the plants (% damage vs untreated control), Poa (Poa; 15 g of ai./ha): 90%; degree of damage to the plants (% damage vs untreated control), Lolium (Lolium; 15 g of ai./ha): 95%; degree of damage to the plants (% damage vs untreated control), Solanum (Solanum; 15 g of ai./ha): 80%; degree of damage to the plants (% damage vs untreated control), Ambrosia (Ambrosia; 15 g of ai./ha): 70%; degree of damage to the plants (% damage vs untreated control), Matricaria (Matricaria; 15 g of ai./ha): 70% |
| COC(=O)c1scc(C)c1S(=O)(=O)NC(=O)c1noc(C)n1 [Example 13] | 30 | 80 | 90 |  | 95 | 95 | very strong activity against weeds |  |  |  |  |  | 90 | degree of damage to the plants (% damage vs untreated control), Sorghum (Sorghum; 125 g of ai./ha): 70% |
| CCOc1nn(C(=O)NS(=O)(=O)c2c(C)cccc2C(=O)OC(C)C)c(=O)n1C1CC1 [Example 46] | 0 |  |  |  |  |  | very strong activity against weeds |  |  |  |  |  |  | degree of damage to the plants (% damage vs untreated control), Poa (Poa; 8 g of ai./ha): 95%; degree of damage to the plants (% damage vs untreated control), Lolium (Lolium; 8 g of ai./ha): 80%; degree of damage to the plants (% damage vs untreated control), Solanum (Solanum; 8 g of ai./ha): 95%; degree of damage to the plants (% damage vs untreated control), Ambrosia (Ambrosia; 8 g of ai./ha): 95%; degree of damage to the plants (% damage vs untreated control), Sorghum (Sorghum; 8 g of ai./ha): 80%; degree of damage to the plants (% damage vs untreated control), Matricaria (Matricaria; 8 g of ai./ha): 95% |
| CCOC(=O)c1scc(C)c1S(=O)(=O)NC(=O)n1nc(SC)n(C)c1=O [Example 55] | 10 | 90 | 100 |  | 100 | 100 | very strong activity against weeds |  |  |  |  |  | 100 | degree of damage to the plants (% damage vs untreated control), Sorghum (Sorghum; 125 g of ai./ha): 60% |
| CCCc1nn(C(=O)NS(=O)(=O)c2c(C)csc2C(=O)OC)c(=O)n1C [Example 35] | 0 |  |  |  |  |  | very strong activity against weeds | 95 | 95 | 95 | 95 | 100 |  | degree of damage to the plants (% damage vs untreated control), Sorghum (Sorghum; 60 g of ai./ha): 95% |
